Laboratory results from ChEMBL document CHEMBL5523701, “Structure-based discovery of small molecule inhibitors of FKBP51-Hsp90 protein-protein interaction” (Eur J Med Chem, 2024).

Columns and labels:
[1] = molecular target: T1, Peptidyl-prolyl cis-trans isomerase FKBP4 (Homo sapiens, UniProt Q02790); assay: Inhibition of GST-tagged human FKBP52 expressed in Escherichia coli BL21 (DE3) using NH2-EDASRMEEVD-COOH peptide as substrate preincubated for 15 mins followed by substrate addition measured after 15 mins by Alpha Screen assay
T1 sequence (Q02790 whole entry): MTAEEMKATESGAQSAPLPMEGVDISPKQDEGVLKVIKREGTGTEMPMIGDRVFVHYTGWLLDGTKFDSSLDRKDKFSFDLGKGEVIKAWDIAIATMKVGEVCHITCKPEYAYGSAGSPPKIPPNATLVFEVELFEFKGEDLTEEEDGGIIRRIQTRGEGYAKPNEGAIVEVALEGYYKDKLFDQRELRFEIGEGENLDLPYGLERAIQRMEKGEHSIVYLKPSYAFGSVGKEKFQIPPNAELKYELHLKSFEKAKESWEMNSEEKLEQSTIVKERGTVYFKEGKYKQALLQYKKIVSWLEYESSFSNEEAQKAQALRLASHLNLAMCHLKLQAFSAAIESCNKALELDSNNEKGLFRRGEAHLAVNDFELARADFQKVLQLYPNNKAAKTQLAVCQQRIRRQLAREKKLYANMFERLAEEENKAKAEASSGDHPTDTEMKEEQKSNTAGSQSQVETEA

[2] = molecular target: T2, Peptidyl-prolyl cis-trans isomerase FKBP5 (Homo sapiens, UniProt Q13451); assay: Inhibition of GST-tagged human FKBP51 expressed in Escherichia coli BL21 (DE3) using NH2-EDASRMEEVD-COOH peptide as substrate preincubated for 15 mins followed by substrate addition measured after 15 mins by Alpha Screen assay
T2 sequence (Q13451 whole entry): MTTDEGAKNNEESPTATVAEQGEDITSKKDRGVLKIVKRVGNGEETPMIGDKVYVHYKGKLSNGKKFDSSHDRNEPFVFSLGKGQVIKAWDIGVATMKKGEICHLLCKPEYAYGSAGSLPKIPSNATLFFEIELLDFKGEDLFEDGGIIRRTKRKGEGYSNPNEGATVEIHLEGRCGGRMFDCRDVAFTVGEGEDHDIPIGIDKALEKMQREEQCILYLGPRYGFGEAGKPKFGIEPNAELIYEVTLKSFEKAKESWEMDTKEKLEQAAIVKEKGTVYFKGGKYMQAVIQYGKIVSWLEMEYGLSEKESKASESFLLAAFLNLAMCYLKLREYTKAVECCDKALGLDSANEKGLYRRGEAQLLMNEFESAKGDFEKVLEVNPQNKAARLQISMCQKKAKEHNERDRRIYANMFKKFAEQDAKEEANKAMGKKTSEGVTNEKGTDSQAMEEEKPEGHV

[3] = molecular target: Stress-induced-phosphoprotein 1 (Homo sapiens, UniProt P31948); assay: Inhibition of GST-tagged human HOP expressed in Escherichia coli BL21 (DE3) using NH2-EDASRMEEVD-COOH peptide as substrate preincubated for 15 mins followed by substrate addition measured after 15 mins by Alpha Screen assay
Sequence of Stress-induced-phosphoprotein 1 (P31948 whole entry): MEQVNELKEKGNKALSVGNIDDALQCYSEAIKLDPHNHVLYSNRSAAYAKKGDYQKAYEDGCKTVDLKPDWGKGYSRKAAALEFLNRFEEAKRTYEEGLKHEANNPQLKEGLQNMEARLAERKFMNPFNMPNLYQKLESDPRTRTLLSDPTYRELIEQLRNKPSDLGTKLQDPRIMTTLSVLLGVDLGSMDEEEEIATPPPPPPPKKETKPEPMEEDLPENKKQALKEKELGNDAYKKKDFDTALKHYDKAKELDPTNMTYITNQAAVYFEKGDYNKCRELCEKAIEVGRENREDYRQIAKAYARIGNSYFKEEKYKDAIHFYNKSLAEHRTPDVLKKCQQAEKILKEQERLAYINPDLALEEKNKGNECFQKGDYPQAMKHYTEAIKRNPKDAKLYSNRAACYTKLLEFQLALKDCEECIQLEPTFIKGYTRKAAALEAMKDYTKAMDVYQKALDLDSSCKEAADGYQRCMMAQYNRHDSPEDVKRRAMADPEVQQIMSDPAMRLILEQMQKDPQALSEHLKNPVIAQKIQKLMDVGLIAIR

[4] = molecular target: T3, AH receptor-interacting protein (Homo sapiens, UniProt O00170); assay: Inhibition of GST-tagged human AIP expressed in Escherichia coli BL21 (DE3) using NH2-EDASRMEEVD-COOH peptide as substrate preincubated for 15 mins followed by substrate addition measured after 15 mins by Alpha Screen assay
T3 sequence (O00170 whole entry): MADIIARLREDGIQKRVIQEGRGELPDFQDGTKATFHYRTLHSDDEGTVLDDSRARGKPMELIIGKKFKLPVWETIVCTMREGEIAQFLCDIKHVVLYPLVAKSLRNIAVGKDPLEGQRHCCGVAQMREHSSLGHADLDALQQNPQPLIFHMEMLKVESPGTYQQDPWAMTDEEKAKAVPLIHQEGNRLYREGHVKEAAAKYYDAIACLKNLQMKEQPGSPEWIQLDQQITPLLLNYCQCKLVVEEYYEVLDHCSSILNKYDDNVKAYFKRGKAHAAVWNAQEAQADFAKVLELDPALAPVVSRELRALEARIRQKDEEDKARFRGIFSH

[5] = Inhibition of GST-tagged FKBP51 Y355F mutant (unknown origin) using NH2-EDASRMEEVD-COOH peptide as substrate preincubated for 15 mins followed by substrate addition measured after 15 mins by Alpha Screen assay; parameters: species or system Homo sapiens
[6] = molecular target: T4, Serine/threonine-protein phosphatase 5 (Homo sapiens, UniProt P53041); assay: Inhibition of GST-tagged human PP5 expressed in Escherichia coli BL21 (DE3) using NH2-EDASRMEEVD-COOH peptide as substrate preincubated for 15 mins followed by substrate addition measured after 15 mins by Alpha Screen assay
T4 sequence (P53041 whole entry): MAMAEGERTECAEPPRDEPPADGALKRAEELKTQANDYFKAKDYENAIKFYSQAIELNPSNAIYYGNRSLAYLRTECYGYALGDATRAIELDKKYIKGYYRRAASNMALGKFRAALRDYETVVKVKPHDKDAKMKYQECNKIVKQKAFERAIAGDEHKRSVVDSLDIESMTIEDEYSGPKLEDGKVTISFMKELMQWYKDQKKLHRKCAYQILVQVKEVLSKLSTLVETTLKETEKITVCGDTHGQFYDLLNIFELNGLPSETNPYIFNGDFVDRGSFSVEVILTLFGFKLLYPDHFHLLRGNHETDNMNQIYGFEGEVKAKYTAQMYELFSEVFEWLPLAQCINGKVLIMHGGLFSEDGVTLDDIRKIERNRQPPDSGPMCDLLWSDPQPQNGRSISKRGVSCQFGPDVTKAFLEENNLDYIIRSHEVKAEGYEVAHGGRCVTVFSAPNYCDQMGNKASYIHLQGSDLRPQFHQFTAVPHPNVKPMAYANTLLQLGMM

[7] = molecular target: T5, E3 ubiquitin-protein ligase CHIP (Homo sapiens, UniProt Q9UNE7); assay: Inhibition of GST-tagged human CHIP expressed in Escherichia coli BL21 (DE3) using NH2-EDASRMEEVD-COOH peptide as substrate preincubated for 15 mins followed by substrate addition measured after 15 mins by Alpha Screen assay
T5 sequence (Q9UNE7 whole entry): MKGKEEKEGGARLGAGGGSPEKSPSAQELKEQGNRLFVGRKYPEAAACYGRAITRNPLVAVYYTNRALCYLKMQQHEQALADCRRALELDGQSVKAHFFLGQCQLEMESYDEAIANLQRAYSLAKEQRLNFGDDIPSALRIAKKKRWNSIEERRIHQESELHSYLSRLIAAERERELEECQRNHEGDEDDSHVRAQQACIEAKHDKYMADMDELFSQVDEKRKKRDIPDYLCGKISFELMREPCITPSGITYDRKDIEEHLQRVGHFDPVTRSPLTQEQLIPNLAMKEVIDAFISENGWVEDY

[8] = molecular target: T6, Mitochondrial import receptor subunit TOM70 (Homo sapiens, UniProt O94826); assay: Inhibition of GST-tagged human TOM70 expressed in Escherichia coli BL21 (DE3) using NH2-EDASRMEEVD-COOH peptide as substrate preincubated for 15 mins followed by substrate addition measured after 15 mins by Alpha Screen assay
T6 sequence (O94826 whole entry): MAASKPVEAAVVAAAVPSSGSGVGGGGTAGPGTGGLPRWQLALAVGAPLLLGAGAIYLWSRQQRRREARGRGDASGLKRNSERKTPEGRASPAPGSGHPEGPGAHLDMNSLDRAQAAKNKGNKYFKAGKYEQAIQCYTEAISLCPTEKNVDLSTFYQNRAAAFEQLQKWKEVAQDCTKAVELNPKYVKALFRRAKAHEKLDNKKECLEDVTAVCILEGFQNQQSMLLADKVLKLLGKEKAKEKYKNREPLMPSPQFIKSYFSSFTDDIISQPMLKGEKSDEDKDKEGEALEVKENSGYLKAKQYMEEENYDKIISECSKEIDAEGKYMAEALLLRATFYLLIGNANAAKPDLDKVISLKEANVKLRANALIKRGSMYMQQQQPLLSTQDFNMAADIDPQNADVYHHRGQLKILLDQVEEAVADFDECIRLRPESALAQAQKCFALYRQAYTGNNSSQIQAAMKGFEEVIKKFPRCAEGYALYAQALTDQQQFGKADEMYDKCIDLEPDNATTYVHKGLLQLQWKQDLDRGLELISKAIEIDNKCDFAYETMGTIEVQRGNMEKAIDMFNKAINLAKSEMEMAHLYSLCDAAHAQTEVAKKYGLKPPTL

[9] = Inhibition of GST-tagged FKBP51 N381Y mutant (unknown origin) using NH2-EDASRMEEVD-COOH peptide as substrate preincubated for 15 mins followed by substrate addition measured after 15 mins by Alpha Screen assay; parameters: species or system Homo sapiens
[10] = molecular target: Small glutamine-rich tetratricopeptide repeat-containing protein alpha (Homo sapiens, UniProt O43765); assay: Inhibition of GST-tagged human SGTA expressed in Escherichia coli BL21 (DE3) using NH2-EDASRMEEVD-COOH peptide as substrate preincubated for 15 mins followed by substrate addition measured after 15 mins by Alpha Screen assay
Sequence of Small glutamine-rich tetratricopeptide repeat-containing protein alpha (O43765 whole entry): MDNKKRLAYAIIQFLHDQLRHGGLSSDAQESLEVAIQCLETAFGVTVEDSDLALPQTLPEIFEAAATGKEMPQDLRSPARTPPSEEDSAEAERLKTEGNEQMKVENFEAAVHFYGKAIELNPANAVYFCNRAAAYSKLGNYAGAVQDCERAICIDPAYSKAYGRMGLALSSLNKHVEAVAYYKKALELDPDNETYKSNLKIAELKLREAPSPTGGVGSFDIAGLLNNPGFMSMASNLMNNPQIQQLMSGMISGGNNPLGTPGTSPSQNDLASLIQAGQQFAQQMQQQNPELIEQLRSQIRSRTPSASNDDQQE

[11] = molecular target: T7, DnaJ homolog subfamily C member 7 (Homo sapiens, UniProt Q99615); assay: Inhibition of GST-tagged human DNAJC7 expressed in Escherichia coli BL21 (DE3) using NH2-EDASRMEEVD-COOH peptide as substrate preincubated for 15 mins followed by substrate addition measured after 15 mins by Alpha Screen assay
T7 sequence (Q99615 whole entry): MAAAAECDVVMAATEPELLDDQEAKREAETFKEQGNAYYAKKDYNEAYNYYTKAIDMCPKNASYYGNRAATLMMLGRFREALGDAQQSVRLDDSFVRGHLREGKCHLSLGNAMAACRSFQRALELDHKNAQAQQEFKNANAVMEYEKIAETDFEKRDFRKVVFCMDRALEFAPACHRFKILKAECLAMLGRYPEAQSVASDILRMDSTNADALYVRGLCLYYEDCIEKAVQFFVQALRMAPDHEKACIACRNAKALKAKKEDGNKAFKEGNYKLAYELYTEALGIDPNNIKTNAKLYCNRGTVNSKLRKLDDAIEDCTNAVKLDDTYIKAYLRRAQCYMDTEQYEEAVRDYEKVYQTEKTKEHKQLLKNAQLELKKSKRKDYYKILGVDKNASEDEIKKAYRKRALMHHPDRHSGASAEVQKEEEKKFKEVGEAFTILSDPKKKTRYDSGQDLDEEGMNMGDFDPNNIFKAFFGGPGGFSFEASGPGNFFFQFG

[12] = buffer
Description: Solubility of compound in aqueous solution

CCC(=O)Nc1ccc(NC(=O)CSc2nc3cc4c(cc3cc2C)CCC4)cc1
IC50 [1]: 3 µM

CCOC(=O)c1c(NC(=O)CSc2n[nH]c(CNc3ccccc3)n2)sc(C)c1C
IC50 [1]: 8 µM

CCc1nnc(NC(=O)CSc2nc(-c3ccc(C)cc3)cc(-c3ccc(OC)cc3)c2C#N)o1
IC50 [1]: 3 µM
IC50 [2]: 2 µM

CCOC(=O)c1c(NC(=O)CSc2nnc(-c3cccc(O)c3)o2)sc(C)c1C
IC50 [1]: 3 µM

CCOC(=O)CC(=O)CSc1nc(C)c2cc(OCC)ccc2n1
IC50 [1]: 9 µM

CCC1CCc2c(sc(NC(=O)CCCC(=O)Nc3sc4c(c3C(N)=O)CCC(CC)C4)c2C(N)=O)C1 (stereo not drawn)
IC50 [3]: 10 µM
IC50 [4]: 10 µM
IC50 [5]: 40 µM
IC50 [6]: 0.03 µM
IC50 [7]: 1 µM
IC50 [8]: 1.5 µM
IC50 [9]: 0.05 µM
solubility: Insoluble
IC50 [10]: 0.1 µM
IC50 [11]: 1 µM
solubility [12]: Insoluble

CCS(=O)(=O)Nc1ccc(-c2nnc(SCC(=O)c3c(C)c(C)cc(C)c3C)o2)cc1
IC50 [1]: 6 µM

Cc1ccc(NC(=O)c2cc(NC(=O)c3ccccc3)cc(NC(=O)c3ccccc3)c2)cc1C
IC50 [1]: > 100 µM

O=C(CSc1nnc(-c2ccc(S(=O)(=O)N3CCCC3)cc2)o1)Nc1ccc(F)cc1
IC50 [1]: 6 µM

CCOc1ccc2cc(C#N)c(SCC(=O)NCCc3ccccc3)nc2c1
IC50 [1]: 5 µM

CCOc1ccc2cc(C#N)c(SCC(=O)Nc3cccc(F)c3)nc2c1
IC50 [1]: 6 µM

CCC(=O)Nc1ccc(NC(=O)CSc2nc3cc4c(cc3cc2C)CCC4)cc1C
IC50 [1]: 5 µM
